# The source made the active and inactive calls. The rule behind the calls is not given here.
# Biological target: Ubiquitin-conjugating enzyme E2 N (Homo sapiens) (UniProt P61088)
# Test: NMR detection of UBE2N ligand binding – biophysical, purified protein (AID 1552)
# Conditions: NMR binding to purified UBE2N
# Sequence of Ubiquitin-conjugating enzyme E2 N (Homo sapiens) (P61088 whole entry, looked up): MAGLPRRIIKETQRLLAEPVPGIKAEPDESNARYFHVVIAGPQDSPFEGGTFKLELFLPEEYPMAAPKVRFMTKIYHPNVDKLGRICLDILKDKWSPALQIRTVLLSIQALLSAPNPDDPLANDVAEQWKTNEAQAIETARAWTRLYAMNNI
row,Compound,Kd
1,CN1CCN(CC(=O)N2CCc3ccccc32)CC1,> 4 mM (inactive)
2,OCc1cc2ccccc2o1,> 4 mM (inactive)
3,CC1(C)Cc2cccc(CO)c2O1,> 4 mM (inactive)
4,O=c1c2ccccc2oc2ccc(O)cc12,> 4 mM (inactive)
5,COc1ccc(NC(=O)C2CC(=O)N=C(N)S2)cc1 (centres undefined),> 4 mM (inactive)
6,COc1nc(N2CCOCC2)nc(N)c1[N+](=O)[O-],> 4 mM (inactive)
7,Nc1cc(=O)[nH]c(=O)n1Cc1ccco1,> 4 mM (inactive)
8,CCCOn1nnnc1-c1ccccc1,> 4 mM (inactive)
9,COc1nc(-c2ccccc2)ccc1-c1noc(C)n1,> 4 mM (inactive)
10,COc1ccc(/C=C2/SC(N)=NC2=O)c(OC)c1,> 4 mM (inactive)
11,Cc1nc2ccccc2c(=O)n1NC(=O)Nc1ccccc1,> 4 mM (inactive)
12,O=C(NCc1ccccn1)c1ccc(Cl)cc1Cl,> 4 mM (inactive)
13,Cc1ccccc1C(=O)Nc1cccc(N)c1,> 4 mM (inactive)
14,Nc1c(S(=O)(=O)c2ccccc2)csc1C(=O)O,> 4 mM (inactive)
15,O=C1N=C(N2CCOCC2)S/C1=C\c1cccnc1,> 4 mM (inactive)
16,NNC(=O)c1ccccc1-n1cccc1,> 4 mM (inactive)
17,Cc1cc(/C=N/O)nc(=O)[nH]1,> 4 mM (inactive)
18,CC(=O)Nc1nnc(-c2ccncc2)s1,> 4 mM (inactive)
19,CCOC(=O)c1csc(C)n1,> 4 mM (inactive)
20,Oc1ccccc1-c1cc(C(F)(F)F)[nH]n1,> 4 mM (inactive)
21,Cn1ncc(N2CCOCC2)c(Cl)c1=O,> 4 mM (inactive)
22,OCc1ccccc1O[C@@H]1O[C@H](CO)[C@@H](O)[C@H](O)[C@H]1O,> 4 mM (inactive)
23,Cc1c(CCO)c(=O)n2c([nH]c3ccccc32)c1C#N,> 4 mM (inactive)
24,COc1cc(OC)c(OC)cc1C=O,> 4 mM (inactive)
25,O=c1[nH]cc(NCc2ccccc2)c(=O)[nH]1,> 4 mM (inactive)

row,Compound,Kd
1,NC(=O)C1CCN(C(=O)CN2CCc3ccccc32)CC1,> 4 mM (inactive)
2,CC(=O)Nc1nc(C)c(C(C)=O)s1,> 4 mM (inactive)
3,CC(=O)c1c(C)nc(-c2ccc(F)cc2)n1O,> 4 mM (inactive)
4,S=c1[nH]nc(-c2cccnc2)n1Cc1ccccc1,> 4 mM (inactive)
5,O=C1C2CC=C(Cl)CC2C(=O)N1c1ccccc1O (centres undefined),> 4 mM (inactive)
6,COc1cc(C)c(Cl)cc1S(=O)(=O)N(C)C,> 4 mM (inactive)
7,NC(=O)c1ccsc1NC(=O)C1=COCCO1,> 4 mM (inactive)
8,O=C(O)C1CC(=O)N(Cc2ccco2)C1 (centres undefined),> 4 mM (inactive)
9,CS(=O)(=O)N1CCN(c2ncccn2)CC1,> 4 mM (inactive)
10,COc1c(O)cc2c(-c3ccccc3)cc(=O)oc2c1OC,> 4 mM (inactive)
11,Cn1cc(Cl)c(C(=O)Nc2ccncc2)n1,> 4 mM (inactive)
12,Cc1ccc(-n2nnnc2SCC(N)=O)c(C)c1,> 4 mM (inactive)
13,CCOC(=O)c1c(-c2ccncc2)csc1N,> 4 mM (inactive)
14,Cc1nc2ccccc2c2c1C(=O)N(C)C2=O,> 4 mM (inactive)
15,Nc1nc(-c2ccccc2)ns1,> 4 mM (inactive)
16,S=C(NCc1cccnc1)NC1CC1,> 4 mM (inactive)
17,O=C(O)c1ccc2[nH]c3c(c2c1)CSCC3,> 4 mM (inactive)
18,O=C1C2CC=CCC2C(=O)N1c1ccccc1O (centres undefined),> 4 mM (inactive)
19,COc1ccc2c(c1)O[C@H]1c3ccc(OC)cc3OC[C@@H]21,> 4 mM (inactive)
20,Cc1c(C)[n+](=O)c(-c2cccs2)c(C)n1[O-],> 4 mM (inactive)
21,CC(C)c1ccc(NC(=O)C(N)=O)cc1,> 4 mM (inactive)
22,OCc1csc(-c2ccccc2)n1,> 4 mM (inactive)
23,Nc1nc(SCC(=O)c2ccc([N+](=O)[O-])cc2)n[nH]1,> 4 mM (inactive)
24,NC(=O)Cn1nc(-c2ccco2)ccc1=O,> 4 mM (inactive)
25,COc1c(F)c(F)c(-c2csc(N)n2)c(F)c1F,> 4 mM (inactive)

row,Compound,Kd
1,Cc1cccc(CO)n1,> 4 mM (inactive)
2,CON(C)C(=O)Nc1ccc(Cl)cc1,> 4 mM (inactive)
3,CC(=O)Oc1cc2c(c(C)c1OC(C)=O)CC=C1[C@@]2(C)CC[C@@]2(C)C3C[C@](C)(C(=O)O)CC[C@]3(C)CC[C@]12C (some centres undefined),> 4 mM (inactive)
4,COC(=O)c1ccccc1N(C)S(C)(=O)=O,> 4 mM (inactive)
5,O=C(Nc1ccccc1)c1cnc2n(c1=O)CCS2,> 4 mM (inactive)
6,NCc1cccc2nsnc12,> 4 mM (inactive)
7,CC(=O)N1C(=S)NC(=O)/C1=C\c1cccnc1,> 4 mM (inactive)
8,C=C1C2CC[C@@]3(C)[C@H](c4ccoc4)OC(=O)C[C@]13O[C@H]1CC(=O)C(C)(C)[C@H](C(OC(C)=O)C(=O)OC)[C@@]21C (some centres undefined),> 4 mM (inactive)
9,O=C1NC(=O)C2C3C=CC(O3)C12 (centres undefined),> 4 mM (inactive)
10,Cc1cc(C)nc(/N=C(\N)N2CCc3ccccc32)n1,> 4 mM (inactive)
11,Oc1ccccc1-c1nnco1,> 4 mM (inactive)
12,Cc1cc([N+](=O)[O-])cc[n+]1[O-],> 4 mM (inactive)
13,O=C(O)Cc1c[nH]c2ccccc12,> 4 mM (inactive)
14,O=C(c1ccc(F)cc1)N1CCOCC1,> 4 mM (inactive)
15,CNC(=O)C(=O)Nc1ccc(F)cc1,> 4 mM (inactive)
16,NS(=O)(=O)c1ccc(NC(=S)NC2CC2)cc1,> 4 mM (inactive)
17,CCOC(=O)c1[nH]c(C)cc1C,> 4 mM (inactive)
18,CCNC(CC(=O)Nc1ccc(O)cc1)C(=O)O (centres undefined),> 4 mM (inactive)
19,Cc1cc(=O)c2c(O)c(C)c(O)cc2o1,> 4 mM (inactive)
20,Cc1cccc(NC(=O)c2ccc(=O)[nH]n2)c1,> 4 mM (inactive)
21,O=C(c1ccc(Cl)c(F)c1F)N1CCCC1,> 4 mM (inactive)
22,CN1CCN(CC(=O)NC2CCCCC2)CC1,> 4 mM (inactive)
23,[O-][n+]1c2ccccc2[n+]([O-])c2cc(O)ccc21,> 4 mM (inactive)
24,CC(=O)Nc1cc(O)cc(O)c1,> 4 mM (inactive)
25,Nc1ccc(NC(=O)c2ccco2)c(Cl)c1,> 4 mM (inactive)

row,Compound,Kd
1,Cc1cc(C)n2nc(NCc3ccccc3)nc2n1,> 4 mM (inactive)
2,Cc1cc(=O)n(CCc2ccccc2)c(O)c1C#N,> 4 mM (inactive)
3,Cc1cn2c(-c3cccnc3)nnc2s1,> 4 mM (inactive)
4,Cn1nnc2cc(CN)ccc21,> 4 mM (inactive)
5,Cc1n[nH]c(=S)n(/N=C/c2ccccc2)c1=O,> 4 mM (inactive)
6,Cc1ccc2cc(C(=O)O)ccc2n1,> 4 mM (inactive)
7,Nc1nc(SCc2ccccc2)ns1,> 4 mM (inactive)
8,CCSc1nc(C)c(CC)c(C)c1C(N)=O,> 4 mM (inactive)
9,N#Cc1nc(-c2cccs2)oc1N1CCOCC1,> 4 mM (inactive)
10,COc1ccc(-c2coc3cc(OC(C)=O)cc(OC(C)=O)c3c2=O)cc1,> 4 mM (inactive)
11,Cc1cc(C(=O)NC(C)c2ccncc2)no1 (centres undefined),> 4 mM (inactive)
12,CCOc1ccc(C)cc1S(=O)(=O)n1ccc(C)n1,> 4 mM (inactive)
13,O=C(O)c1ccc(-n2cncn2)cc1,> 4 mM (inactive)
14,CN1C2C[C@H](OC(=O)[C@H](CO)c3ccccc3)C[C@H]1[C@@H](O)C2,> 4 mM (inactive)
15,COc1ccc2c(c1)OC[C@@H](Cc1ccc(OC)c(OC)c1)[C@@H]2O,> 4 mM (inactive)
16,CC1=NN(c2ccc(N)cc2)C(=O)C1,> 4 mM (inactive)
17,O=C(NC1=NCCS1)c1cccc(F)c1,> 4 mM (inactive)
18,Cn1cc(Cl)c(C(=O)Nc2ccc(F)cc2F)n1,> 4 mM (inactive)
19,CC(=O)Nc1c(C#N)c(C(C)(C)C)cn1C,> 4 mM (inactive)
20,COc1cc(C/C=C/c2ccccc2)c(OC)cc1O,> 4 mM (inactive)
21,NS(=O)(=O)c1ccc(NC(=O)C2CC2)cc1,> 4 mM (inactive)
22,O=C(Nc1ccc(N2CCOCC2)cc1)C1CC1,> 4 mM (inactive)
23,Nc1cccc2cccnc12,> 4 mM (inactive)
24,O=C(Nc1ccc(N2CCCC2=O)cc1)c1cccc(F)c1,> 4 mM (inactive)
25,O=c1ccnc(Nc2ccccc2O)[nH]1,> 4 mM (inactive)

row,Compound,Kd
1,Cc1cc(NC(=O)c2cccc(S(C)(=O)=O)c2)no1,> 4 mM (inactive)
2,Cc1occc1C(=O)Nc1sccc1C(N)=O,> 4 mM (inactive)
3,CC(=O)Oc1c(C)cc(O)c2ccccc12,> 4 mM (inactive)
4,Nc1ncnc(NCCOCCO)c1[N+](=O)[O-],> 4 mM (inactive)
5,NCc1csc(-c2ccccc2)n1,> 4 mM (inactive)
6,CC1(C)CC[C@]2(C(=O)O)CC[C@]3(C)C(=CCC4[C@@]5(C)CC[C@@H](O)C(C)(C)C5CC[C@]43C)C2C1 (some centres undefined),> 4 mM (inactive)
7,C/C=C/C=N/NC(=O)c1ccc(=O)n(C)c1,> 4 mM (inactive)
8,O=C(c1ccc(N2CCNCC2)cc1)c1cccnc1,> 4 mM (inactive)
9,Cc1nn2c(=O)nc3sc4c(c3c2[nH]c1=O)CCCC4,> 4 mM (inactive)
10,Cc1ccc(C(O)c2nccn2C)o1 (centres undefined),> 4 mM (inactive)
11,CC(=O)Nc1nc(-c2cccs2)cs1,> 4 mM (inactive)
12,COc1ccccc1CNc1nc2nc(C)cc(=O)n2[nH]1,> 4 mM (inactive)
13,Cc1ccc2c(c1)CC[C@H]1CC(=O)CC[C@]21C,> 4 mM (inactive)
14,Cc1cc2nc(SCC(=O)O)nc(C)c2cc1C,> 4 mM (inactive)
15,NC(=O)CN=Cc1c(O)[nH]c2ccccc12,> 4 mM (inactive)
16,NCC1CN(Cc2ccccc2)CCO1 (centres undefined),> 4 mM (inactive)
17,CC1=NN(c2ccc(C)cc2)C(=O)C1,> 4 mM (inactive)
18,Cc1ccc(CO)o1,> 4 mM (inactive)
19,O=C1NC(=O)C(C2SC(=O)NC2=O)S1 (centres undefined),> 4 mM (inactive)
20,CC(C)=CC1C(CO)C1(C)C (centres undefined),> 4 mM (inactive)
21,Cn1cnc2ccc([N+](=O)[O-])cc2c1=O,> 4 mM (inactive)
22,Nc1cccc(CC(=S)N2CCOCC2)c1,> 4 mM (inactive)
23,COc1c2ccccc2nc2occc12,> 4 mM (inactive)
24,NC(=O)CSc1nc2ncnc(N)c2[nH]1,> 4 mM (inactive)

# From PubChem BioAssay AID1552 (Sanford-Burnham Center for Chemical Genomics, 2009)
